{"source": "patent US20230127326A1", "about": "“C3-SUBSTITUTED 1H-PYRAZOLO[4,3-d]PYRIMIDINE COMPOUNDS AS TOLL-LIKE RECEPTOR 7 (TLR7) AGONISTS” (BRISTOL-MYERS SQUIBB COMPANY, priority 2020, published 2023)", "key": {"human TLR7": {"target": "T1, human TLR7 (Homo sapiens, UniProt Q9NYK1)", "T1 construct": "host or cells: HEK-Blue TLR7 cells (engineered human embryonic kidney cells)", "T1 sequence (Q9NYK1 27-1049)": "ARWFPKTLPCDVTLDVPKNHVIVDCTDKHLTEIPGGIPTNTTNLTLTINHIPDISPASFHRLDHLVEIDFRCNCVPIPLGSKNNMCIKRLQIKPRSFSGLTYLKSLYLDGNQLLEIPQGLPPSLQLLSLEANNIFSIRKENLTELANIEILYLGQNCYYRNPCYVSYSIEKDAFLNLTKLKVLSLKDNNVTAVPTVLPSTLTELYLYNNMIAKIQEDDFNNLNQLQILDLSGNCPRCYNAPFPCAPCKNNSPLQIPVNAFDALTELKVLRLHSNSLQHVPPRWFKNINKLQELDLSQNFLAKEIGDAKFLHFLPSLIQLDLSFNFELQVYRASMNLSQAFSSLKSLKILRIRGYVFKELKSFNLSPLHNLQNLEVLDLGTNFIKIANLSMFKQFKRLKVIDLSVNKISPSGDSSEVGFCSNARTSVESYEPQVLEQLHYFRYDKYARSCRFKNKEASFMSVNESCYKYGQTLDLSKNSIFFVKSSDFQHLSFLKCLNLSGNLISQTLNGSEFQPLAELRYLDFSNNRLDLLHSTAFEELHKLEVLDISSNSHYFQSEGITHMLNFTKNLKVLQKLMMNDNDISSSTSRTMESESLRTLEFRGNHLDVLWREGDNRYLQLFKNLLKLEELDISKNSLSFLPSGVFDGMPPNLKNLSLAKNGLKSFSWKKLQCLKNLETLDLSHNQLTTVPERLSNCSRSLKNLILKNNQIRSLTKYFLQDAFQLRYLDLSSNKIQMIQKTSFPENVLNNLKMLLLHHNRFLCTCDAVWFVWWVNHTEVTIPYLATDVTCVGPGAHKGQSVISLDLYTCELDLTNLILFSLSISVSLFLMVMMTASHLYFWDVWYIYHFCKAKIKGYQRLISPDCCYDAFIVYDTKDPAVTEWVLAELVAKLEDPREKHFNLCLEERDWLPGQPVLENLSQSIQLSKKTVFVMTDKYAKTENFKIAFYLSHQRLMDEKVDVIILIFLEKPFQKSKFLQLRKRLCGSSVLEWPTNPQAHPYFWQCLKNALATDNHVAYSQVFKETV", "assay": "Human TLR7 agonist activity reporter assay (HEK-Blue TLR7 cells, SEAP reporter)", "type": "cell-based", "details": "18 h treatment, average where assay was performed multiple times, read-out: hTLR7 Agonism EC50", "protocol": "This procedure describes a method for assaying human TLR7 (hTLR7) agonist activity of the compounds disclosed in this specification.\nHEK-Blue™ TLR7 cells were added to each well of a 384-well tissue-culture plate (15,000 cells per well) and incubated 16-18 h at 37° C., 5% CO2. Compounds (100 nl) were dispensed into wells containing the HEK-Blue™ TLR cells and the treated cells were incubated at 37° C., 5% CO2. After 18 h treatment ten microliters of freshly-prepared Quanti-Blue™ reagent (Invivogen) was added to each well, incubated for 30 min (37° C., 5% CO2) and SEAP levels measured using an Envision plate reader (OD=620 nm). The half maximal effective concentration values (EC50; compound concentration which induced a response halfway between the assay baseline and maximum) were calculated."}, "CD69": {"test_system": "CD69", "assay": "Induction of CD69 in human whole blood", "type": "cell-based", "details": "17 hrs at 37° C., y-axis 100% set to 1 uM of resiquimod, average where assay was performed multiple times, read-out: hWB CD69 EC50", "protocol": "The induction of Type I interferon (IFN) MX-1 genes and the B-cell activation marker CD69 are downstream events that occur upon activation of the TLR7 pathway. The following is a human whole blood assay that measures their induction in response to a TLR7 agonist.\nHeparinized human whole blood was harvested from human subjects and treated with test TLR7 agonist compounds at 1 mM. The blood was diluted with RPMI 1640 media and Echo was used to predot 10 nL per well giving a final concentration of 1 uM (10 nL in 10 uL of blood). After mixing on a shaker for 30 sec, the plates were covered and placed in a 37° C. chamber for o/n=17 hrs. Fixing/lysis buffer was prepared (5×->1× in H2O, warm at 37° C.; Cat #BD 558049) and kept the perm buffer (on ice) for later use.\nFor surface markers staining (CD69): prepared surface Abs: 0.045 ul hCD14-FITC (ThermoFisher Cat #MHCD1401)+0.6 ul hCD19-ef450 (ThermoFisher Cat #48-0198-42)+1.5 ul hCD69-PE (cat #BD555531)+0.855 ul FACS buffer. Added 3 ul/well, spin 1000 rpm for 1 min and mixed on shaker for 30 sec, put on ice for 30 mins. Stop stimulation after 30 minutes with 70 uL of prewarmed 1× fix/lysis buffer and use Feliex mate to resuspend (15 times, change tips for each plate) and incubate at 37 C for 10 minutes.\nCentrifuge at 2000 rpm for 5 minutes aspirate with HCS plate washer, mix on shaker for 30 sec and then wash with 70 uL in dPBS and pelleted 2×s (2000 rpm for 5 min) and 50 ul wash in FACS buffer pelleted 1×s (2000 rpm for 5 min). Mix on shaker for 30 sec. For Intracellular markers staining (MX-1): Add 50 ul of BD Perm buffer III and mix on shaker for 30 sec. Incubate on ice for 30 minutes (in the dark). Wash with 50 uL of FACS buffer 2× (spin @2300 rpm×5 min after perm) followed by mixing on shaker for 30 sec. Resuspended in 20 ul of FACS buffer containing MX1 antibody ( )(4812)-Alexa 647: Novus Biologicals #NBP2-43704AF647) 20 ul FACS bf+0.8 ul hIgG+0.04 ul MX-1. Spin 1000 rpm for 1 min, mix on shaker for 30 se and the samples were incubated at RT in the dark for 45 minutes followed by washing 2×FACS buffer (spin @2300 rpm×5 min after perm). Resuspend 20 ul (35 uL total per well) of FACS buffer and cover with foil and place in 4° C. to read the following day. Plates were read on iQuePlus. The results were loaded into toolset and […] curves are generated in curve master. The y-axis 100% is set to 1 uM of resiquimod."}}, "data": [{"smiles": "CCC[C@@H](CCO)Nc1nc(N)nc2c(F)nn(Cc3ccc(CN[C@H]4COC[C@@H]4O)cc3OC)c12", "note": "[Compound 133, (3R,4S)-4-[({4-[(5-amino-3-fluoro-7-{[(3S)-1-hydroxy-hexan-3-yl]amino}-1H-pyrazolo[4,3-d]pyrimidin-1-yl)-methyl]-3-methoxyphenyl}-methyl)amino]oxolan-3-ol]", "values": [{"measurement": "EC50", "setting": "human TLR7", "value": 47.9, "unit": "nM"}, {"measurement": "EC50", "setting": "CD69", "value": 12.6, "unit": "nM"}]}]}
